This passage reports EC50 results from paper PMC11923213, “Structural characterization reveals substrate recognition by the taurine transporter TauT” (Cell Discovery, 2025).

Broadly, the pEC50 is −log10 of the EC50, conventionally taken in molar units. High values mean a low EC50, low ones a high EC50.

Substitutions are numbered along the chain they refer to. pEC50: −log10 of the molar value.

What all share (assay type): cell-based
For assay [1], the target named is T1, TauT (taurine transporter, SLC6A6) (Homo sapiens, UniProt P31641, E406T).
T1 construct: wild-type TauT expressed in Xenopus laevis oocytes for electrophysiology; cryo-EM sample details only in supplement
T1 sequence (P31641 1-620 E406T): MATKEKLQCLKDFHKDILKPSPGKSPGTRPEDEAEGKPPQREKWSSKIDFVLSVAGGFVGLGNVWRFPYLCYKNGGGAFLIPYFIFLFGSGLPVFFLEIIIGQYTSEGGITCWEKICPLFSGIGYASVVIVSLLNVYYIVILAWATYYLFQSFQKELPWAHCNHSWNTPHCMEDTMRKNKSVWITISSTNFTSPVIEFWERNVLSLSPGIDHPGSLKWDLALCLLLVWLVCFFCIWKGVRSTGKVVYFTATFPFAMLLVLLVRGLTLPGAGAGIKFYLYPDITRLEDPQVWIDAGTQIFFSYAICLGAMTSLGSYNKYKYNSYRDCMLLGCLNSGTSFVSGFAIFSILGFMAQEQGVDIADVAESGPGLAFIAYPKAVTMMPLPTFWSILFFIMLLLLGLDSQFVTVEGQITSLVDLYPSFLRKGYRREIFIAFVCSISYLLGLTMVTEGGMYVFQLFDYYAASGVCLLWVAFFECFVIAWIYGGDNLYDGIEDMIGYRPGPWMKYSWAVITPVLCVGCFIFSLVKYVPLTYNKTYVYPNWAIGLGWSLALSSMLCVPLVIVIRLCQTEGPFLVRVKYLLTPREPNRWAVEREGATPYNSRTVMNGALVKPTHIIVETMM
Nature of the assay: Xenopus laevis oocytes, taurine-induced inward current.

The target of assay [2] is T2, TauT (taurine transporter, SLC6A6; TauT^WT) (Homo sapiens, UniProt P31641).
T2 construct: wild-type TauT expressed in Xenopus laevis oocytes for electrophysiology; cryo-EM sample details only in supplement
T2 sequence (P31641 1-620): T1 sequence (P31641 1-620 E406T) with T406E
Nature of the assay: two-electrode voltage clamp in Xenopus laevis oocytes, taurine-induced inward current. On the technique in general: Two-electrode voltage clamp holds a large cell at a set potential and records current.

The target in assay [3] is T2, TauT (taurine transporter, SLC6A6; TauT^WT). Kind of assay: Xenopus laevis oocytes, β-alanine-induced inward current.

Take `NCCS(=O)(=O)O` [taurine]: the pEC50 was 4.30 in assay [1] and 5.54 in assay [2].
The molecule `NCCC(=O)O` [β-alanine] showed a pEC50 in assay [3] of 5.25.
